Some results are limits rather than exact numbers.

Metabotropic glutamate receptor 5, sequence (P31424 whole entry): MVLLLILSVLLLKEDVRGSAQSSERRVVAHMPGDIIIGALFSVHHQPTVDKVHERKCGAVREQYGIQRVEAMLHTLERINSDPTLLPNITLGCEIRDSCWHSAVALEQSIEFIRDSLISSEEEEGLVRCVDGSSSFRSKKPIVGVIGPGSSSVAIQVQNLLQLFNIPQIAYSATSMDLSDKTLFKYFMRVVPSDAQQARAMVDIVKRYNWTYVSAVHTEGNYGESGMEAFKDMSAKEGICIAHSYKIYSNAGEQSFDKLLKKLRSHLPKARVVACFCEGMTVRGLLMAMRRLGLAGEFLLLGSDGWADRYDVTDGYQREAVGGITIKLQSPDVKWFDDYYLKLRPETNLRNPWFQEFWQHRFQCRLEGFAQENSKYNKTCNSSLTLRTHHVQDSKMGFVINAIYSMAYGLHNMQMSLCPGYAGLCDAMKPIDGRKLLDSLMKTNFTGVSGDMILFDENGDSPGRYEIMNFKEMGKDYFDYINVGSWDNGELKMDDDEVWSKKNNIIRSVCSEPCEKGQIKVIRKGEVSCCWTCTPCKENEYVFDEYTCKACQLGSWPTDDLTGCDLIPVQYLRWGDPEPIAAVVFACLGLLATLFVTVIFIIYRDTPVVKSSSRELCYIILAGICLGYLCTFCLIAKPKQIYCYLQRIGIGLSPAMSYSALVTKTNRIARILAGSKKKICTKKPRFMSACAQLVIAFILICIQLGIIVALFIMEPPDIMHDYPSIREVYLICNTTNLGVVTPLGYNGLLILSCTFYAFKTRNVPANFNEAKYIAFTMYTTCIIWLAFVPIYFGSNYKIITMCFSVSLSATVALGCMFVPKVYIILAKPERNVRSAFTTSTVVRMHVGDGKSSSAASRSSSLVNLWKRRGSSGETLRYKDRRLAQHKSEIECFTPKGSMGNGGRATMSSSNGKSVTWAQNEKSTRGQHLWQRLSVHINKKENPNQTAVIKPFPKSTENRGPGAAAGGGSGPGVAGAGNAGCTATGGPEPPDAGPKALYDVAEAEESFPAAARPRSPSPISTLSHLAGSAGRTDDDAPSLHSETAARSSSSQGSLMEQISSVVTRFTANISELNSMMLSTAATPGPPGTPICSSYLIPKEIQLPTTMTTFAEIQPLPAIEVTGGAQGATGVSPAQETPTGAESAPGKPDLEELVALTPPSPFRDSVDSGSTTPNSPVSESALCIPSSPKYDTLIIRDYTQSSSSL

The test concerns the target Metabotropic glutamate receptor 5 (Rattus norvegicus, UniProt P31424). The test can be described thus: Displacement of [3H]-MPEP from mGlur5 from Sprague-Dawley rat brain membranes incubated for 1 hr by liquid scintillation spectrometry. Type of test: tissue-based, Membrane.
With `Cc1cc(C)c(N)c(C#Cc2cccc(F)c2)n1`, the IC50 is less than 30 nM. On to `Cc1ccc(N)c(C#Cc2cccc(F)c2)n1`, for which the IC50 was less than 30 nM. As for `Cc1ccc(N)c(C#Cc2cncc(Cl)c2)n1`, the figure is less than 30 nM; as for `Cc1ccc(N)c(C#Cc2cc(F)cc(F)c2)n1`, less than 30 nM; as for `Cc1cc(C)c(N)c(C#Cc2cccc(Cl)c2)n1`, less than 30 nM.

(Values after ChEMBL document CHEMBL3880401, “Novel aminopyridine derivatives as mGluR5 antagonists” (2006).)
